{"source": "ChEMBL document CHEMBL4177733", "about": "“(-)-9'-O-(α-l-Rhamnopyranosyl)lyoniresinol from Lespedeza cuneata suppresses ovarian cancer cell proliferation through induction of apoptosis” (Bioorg Med Chem Lett, 2018)", "key": {"[1]": {"tested_on": "A2780", "test": "Cytotoxicity against human A2780 cells assessed as reduction in cell viability at 5 to 100 uM incubated for 24 hrs by MTT assay", "format": "functional, cell-based"}, "[2]": {"tested_on": "A2780", "test": "Induction of apoptosis in human A2780 cells assessed as caspase-3 activation at 50 to 100 uM incubated for 24 hrs by Western blot", "format": "functional, cell-based"}, "[3]": {"tested_on": "MCF7", "test": "Cytotoxicity against human MCF7 cells assessed as reduction in cell viability at 5 to 100 uM incubated for 24 hrs by MTT assay", "format": "functional, cell-based"}, "[4]": {"tested_on": "A2780", "test": "Induction of apoptosis in human A2780 cells assessed as caspase-8 activation at 50 to 100 uM incubated for 24 hrs by Western blot", "format": "functional, cell-based"}, "[5]": {"tested_on": "A2780", "test": "Induction of apoptosis in human A2780 cells assessed as increase in BAX protein level at 50 to 100 uM incubated for 24 hrs by Western blot", "format": "functional, cell-based"}, "[6]": {"tested_on": "A2780", "test": "Induction of apoptosis in human A2780 cells assessed as induction of cell blebbing at 50 to 100 uM incubated for 24 hrs by Hoechst 33342 staining based fluorescence microscopy", "format": "functional"}, "[7]": {"tested_on": "LLC-PK1", "test": "Cytotoxicity against LLC-PK1 cells assessed as reduction in cell viability at 5 to 100 uM incubated for 24 hrs by MTT assay", "format": "cell-based", "conditions": "Sus scrofa, LLC-PK1, 24 h"}, "[8]": {"tested_on": "A2780", "test": "Induction of apoptosis in human A2780 cells assessed as reduction in Bcl-2 protein level at 50 to 100 uM incubated for 24 hrs by Western blot", "format": "functional, cell-based"}, "[9]": {"tested_on": "A2780", "test": "Induction of apoptosis in human A2780 cells assessed as induction of cell condensation at 50 to 100 uM incubated for 24 hrs by Hoechst 33342 staining based fluorescence microscopy", "format": "functional"}, "[10]": {"tested_on": "HeLa", "test": "Cytotoxicity against human HeLa cells assessed as reduction in cell viability at 5 to 100 uM incubated for 24 hrs by MTT assay", "format": "functional, cell-based"}, "[11]": {"tested_on": "A2780", "test": "Induction of apoptosis in human A2780 cells assessed as caspase-9 activation at 50 to 100 uM incubated for 24 hrs by Western blot", "format": "functional, cell-based"}, "[12]": {"tested_on": "A2780", "test": "Induction of apoptosis in human A2780 cells assessed as BID cleavage at 50 to 100 uM incubated for 24 hrs by Western blot", "format": "functional, cell-based"}, "[13]": {"tested_on": "A2780", "test": "Induction of apoptosis in human A2780 cells assessed as induction of cell shrinkage at 50 to 100 uM incubated for 24 hrs by Hoechst 33342 staining based fluorescence microscopy", "format": "functional"}, "[14]": {"tested_on": "A2780", "test": "Induction of apoptosis in human A2780 cells assessed as PARP cleavage at 50 to 100 uM incubated for 24 hrs by Western blot", "format": "functional, cell-based"}}, "note": "Active and inactive are the calls of the source. The calls are words filed in the database; no cut-off is given here.", "data": [{"smiles": "COc1cc(C(=O)O)ccc1O", "values": [{"measurement": "Activity", "setting": "[1]", "result": "inactive"}]}, {"smiles": "O=c1c(O[C@@H]2O[C@H](CO)[C@@H](O)[C@H](O)[C@H]2O)c(-c2ccc(O)cc2)oc2cc(O)cc(O)c12", "values": [{"measurement": "Activity", "setting": "[1]", "result": "inactive"}]}, {"smiles": "COc1cc([C@@H]2c3cc(O)c(OC)cc3C[C@H](CO)[C@H]2CO[C@@H]2O[C@@H](C)[C@H](O)[C@@H](O)[C@H]2O)ccc1O", "values": [{"measurement": "Activity", "setting": "[1]", "result": "inactive"}]}, {"smiles": "COc1cc2c(cc1O)[C@H](c1cc(OC)c(O)c(OC)c1)[C@@H](CO[C@@H]1O[C@@H](C)[C@H](O)[C@@H](O)[C@H]1O)[C@H](CO)C2", "values": [{"measurement": "Activity", "setting": "[1]", "result": "inactive"}]}, {"smiles": "O=c1cc(-c2ccc(O)c(O)c2)oc2c([C@@H]3O[C@H](CO)[C@@H](O)[C@H](O)[C@H]3O)c(O)cc(O)c12", "values": [{"measurement": "Activity", "setting": "[1]", "result": "inactive"}]}, {"smiles": "O=c1c(O)c(-c2ccc(O)cc2)oc2cc(O[C@@H]3O[C@H](CO)[C@@H](O)[C@H](O)[C@H]3O)cc(O)c12", "values": [{"measurement": "Activity", "setting": "[1]", "result": "inactive"}]}, {"smiles": "COc1cc(C(=O)O)cc(OC)c1O", "values": [{"measurement": "Activity", "setting": "[1]", "result": "Active"}]}, {"smiles": "COc1cc([C@H]2c3cc(O)c(OC)cc3C[C@@H](CO)[C@@H]2CO[C@@H]2O[C@@H](C)[C@H](O)[C@@H](O)[C@H]2O)ccc1O", "values": [{"measurement": "Activity", "setting": "[1]", "result": "inactive"}]}, {"smiles": "COc1cc([C@@H]2c3c(cc(OC)c(O)c3OC)C[C@H](CO)[C@H]2CO[C@@H]2O[C@@H](C)[C@H](O)[C@@H](O)[C@H]2O)cc(OC)c1O", "values": [{"measurement": "Activity", "setting": "[2]", "result": "Active"}, {"measurement": "Activity", "setting": "[1]", "result": "Dose-dependent effect"}, {"measurement": "IC50", "setting": "[1]; A2780, 24 h", "result": 35.4, "unit": "µM"}, {"measurement": "Activity", "setting": "[3]", "result": "inactive"}, {"measurement": "Activity", "setting": "[4]", "result": "Active"}, {"measurement": "Activity", "setting": "[5]", "result": "Active"}, {"measurement": "Activity", "setting": "[6]", "result": "Active"}, {"measurement": "IC50", "setting": "[7]", "result": "> 100", "unit": "µM"}, {"measurement": "Activity", "setting": "[8]", "result": "Active"}, {"measurement": "Activity", "setting": "[9]", "result": "Active"}, {"measurement": "Activity", "setting": "[10]", "result": "inactive"}, {"measurement": "Activity", "setting": "[11]", "result": "inactive"}, {"measurement": "Activity", "setting": "[12]", "result": "Active"}, {"measurement": "Activity", "setting": "[13]", "result": "Active"}, {"measurement": "Activity", "setting": "[14]", "result": "Active"}]}]}
